# Assays:
# ECHCG = experiment: Post-emergence herbicidal effect, greenhouse pot test; format: in vivo, Echinochloa crus-galli; conditions: for pest or weed control at 80 g/ha / pest or weed control at 320 g/ha: Echinochloa crus-galli, 504 h, read-out: Post-emergence effect against ECHCG in %
# Outline: (§1)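 Greenhouse pot plants in sandy loam receive a one-leaf-stage spray at 20 to 320 g/ha. Activity is assessed visually around 3 weeks afterwards on a 0–100% scale, where 100% means the plants have died.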
# VIOTR = experiment: as above; format: in vivo, Viola tricolor
# Outline: as §1
# DIGSA = experiment: as above; format: in vivo, Digitaria sanguinalis; conditions: visual rating about 3 weeks after treatment; for pest or weed control at 80 g/ha / pest or weed control at 320 g/ha: Digitaria sanguinalis, 504 h, read-out: Post-emergence effect against DIGSA
# Outline: as §1
# POLCO = experiment: as above; format: in vivo, Fallopia convolvulus
# Outline: as §1
# PHBPU = experiment: as above; format: in vivo, Ipomoea purpurea; conditions: for pest or weed control at 80 g/ha / pest or weed control at 320 g/ha: Ipomoea purpurea, 504 h, read-out: Post-emergence effect against PHBPU in %
# Outline: as §1
# VERPE = experiment: as above; format: in vivo, Veronica persica
# Outline: as §1
# ZEAMX = experiment: Post-emergence herbicidal effect and crop plant compatibility, greenhouse pot test; format: in vivo, Zea mays; conditions: one-leaf stage, rated visually after about 3 weeks vs untreated controls; for plant injury at 20 g/ha: read-out: Post-emergence effect at 20 g/ha against ZEAMX in %
# Outline: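 Visual % activity scored roughly 3 weeks post-spray against untreated plants, where 100% means death and 0% equals control. Plants were treated at the one-leaf stage, 2 to 3 weeks after sowing in sandy loam, at 20 to 320 g/ha.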
# AVEFA = experiment: Post-emergence herbicidal effect, greenhouse pot test; format: in vivo, Avena fatua; conditions: visual rating about 3 weeks after treatment; for pest or weed control at 80 g/ha / pest or weed control at 320 g/ha: Avena fatua, 504 h, read-out: Post-emergence effect against AVEFA
# Outline: as §1
# ABUTH = experiment: as above; format: in vivo, Abutilon theophrasti; conditions: visual rating about 3 weeks after treatment; for pest or weed control at 80 g/ha / pest or weed control at 320 g/ha: Abutilon theophrasti, 504 h, read-out: Post-emergence effect against ABUTH
# Outline: as §1
# LOLRI = experiment: as above; format: in vivo, Lolium rigidum; conditions: for pest or weed control at 80 g/ha / pest or weed control at 320 g/ha: Lolium rigidum, 504 h, read-out: Post-emergence effect against LOLRI in %
# Outline: as §1
# SETVI = experiment: as above; format: in vivo, Setaria viridis
# Outline: as §1
# MATIN = experiment: as above; format: in vivo, Tripleurospermum inodorum
# Outline: as §1
# AMARE = experiment: as above; format: in vivo, Amaranthus retroflexus; conditions: visual rating about 3 weeks after treatment; for pest or weed control at 320 g/ha: Amaranthus retroflexus, 504 h, read-out: Post-emergence effect against AMARE
# Outline: as §1
# KCHSC = experiment: as above; format: in vivo; conditions: for pest or weed control at 80 g/ha / pest or weed control at 320 g/ha: 504 h, read-out: Post-emergence effect against KCHSC in %
# Outline: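 Visual rating of activity against untreated plants (100% = plants died, 0% = no effect), done about 3 weeks after treatment. Compounds applied at 20–320 g/ha as aqueous spray (600 l/ha, 0.5% additive) from WP or EC formulations onto one-leaf-stage plants grown in sandy loam under greenhouse conditions.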
# ALOMY = experiment: as above; format: in vivo, Alopecurus myosuroides; conditions: 320 g/ha, visual rating about 3 weeks after treatment; for pest or weed control at 320 g/ha: Alopecurus myosuroides, 504 h, read-out: Post-emergence effect against ALOMY
# Outline: as §1
# [1] = Viola tricolor, 504 h, 80 g/ha, read-out: Post-emergence effect against VIOTR in %
# [2] = Viola tricolor, 504 h, 320 g/ha, read-out: Post-emergence effect against VIOTR in %
# [3] = Fallopia convolvulus, 504 h, 80 g/ha, read-out: Post-emergence effect against POLCO in %
# [4] = Fallopia convolvulus, 504 h, 320 g/ha, read-out: Post-emergence effect against POLCO in %
# [5] = Veronica persica, 504 h, 320 g/ha, read-out: Post-emergence effect against VERPE in %
# [6] = Setaria viridis, 504 h, 320 g/ha, read-out: Post-emergence effect against SETVI in %
# [7] = Tripleurospermum inodorum, 504 h, 320 g/ha, read-out: Post-emergence effect against MATIN in %
smiles,measurement,setting,value
CCOC(=O)C(OC)Oc1nn(-c2ncccc2F)c(-c2ccc(F)nc2)c1Br (stereo not drawn) [Example I-14],pest or weed control at 80 g/ha,ECHCG; 80 g/ha,90%
same,pest or weed control at 320 g/ha,ECHCG; 320 g/ha,90%
same,pest or weed control at 80 g/ha,VIOTR; [1],90%
same,pest or weed control at 320 g/ha,VIOTR; [2],90%
same,pest or weed control at 80 g/ha,DIGSA; 80 g/ha,80%
same,pest or weed control at 320 g/ha,DIGSA; 320 g/ha,90%
same,pest or weed control at 80 g/ha,POLCO; [3],80%
same,pest or weed control at 320 g/ha,POLCO; [4],80%
same,pest or weed control at 80 g/ha,PHBPU; 80 g/ha,80%
same,pest or weed control at 320 g/ha,PHBPU; 320 g/ha,90%
same,pest or weed control at 320 g/ha,VERPE; [5],90%
same,plant injury at 20 g/ha,"ZEAMX; Zea mays, 504 h, 20 g/ha",0%
same,pest or weed control at 80 g/ha,AVEFA; 80 g/ha,90%
same,pest or weed control at 320 g/ha,AVEFA; 320 g/ha,90%
same,pest or weed control at 80 g/ha,ABUTH; 80 g/ha,90%
same,pest or weed control at 320 g/ha,ABUTH; 320 g/ha,90%
same,pest or weed control at 80 g/ha,LOLRI,90%
same,pest or weed control at 320 g/ha,LOLRI; 320 g/ha,90%
same,pest or weed control at 320 g/ha,SETVI; [6],90%
same,pest or weed control at 320 g/ha,MATIN; [7],90%
same,pest or weed control at 320 g/ha,AMARE; 320 g/ha,80%
same,pest or weed control at 80 g/ha,KCHSC; 80 g/ha,90%
same,pest or weed control at 320 g/ha,KCHSC; 320 g/ha,90%
same,pest or weed control at 320 g/ha,ALOMY,90%
COC(=O)CCOC(=O)C(OC)Oc1nn(-c2ncccc2F)c(-c2cncc(F)c2)c1C1CC1 (stereo not drawn) [Example I-82],Post-emergence effect against ECHCG,"ECHCG; 20 g/ha, visual rating about 3 weeks after treatment",80%
same,Post-emergence effect against ECHCG in %,ECHCG; 80 g/ha,90%
same,Post-emergence effect against ECHCG in %,ECHCG; 320 g/ha,90%
same,Post-emergence effect against VIOTR in %,VIOTR; 20 g/ha,80%
same,Post-emergence effect against VIOTR in %,VIOTR; 80 g/ha,90%
same,Post-emergence effect against VIOTR in %,VIOTR; 320 g/ha,90%
same,Post-emergence effect against DIGSA,DIGSA; 80 g/ha,90%
same,Post-emergence effect against DIGSA,DIGSA; 320 g/ha,90%
same,Post-emergence effect against POLCO in %,POLCO; 20 g/ha,80%
same,Post-emergence effect against POLCO in %,POLCO; 80 g/ha,80%
same,Post-emergence effect against POLCO in %,POLCO; 320 g/ha,90%
same,Post-emergence effect against PHBPU in %,PHBPU; 80 g/ha,80%
same,Post-emergence effect against PHBPU in %,PHBPU; 320 g/ha,90%
same,Post-emergence effect against VERPE in %,VERPE; 80 g/ha,90%
same,Post-emergence effect against VERPE in %,VERPE; 320 g/ha,90%
same,Post-emergence effect at 20 g/ha against ZEAMX in %,ZEAMX; 20 g/ha,20%
same,Post-emergence effect against AVEFA,AVEFA; 80 g/ha,90%
same,Post-emergence effect against AVEFA,AVEFA; 320 g/ha,90%
same,Post-emergence effect against ABUTH,ABUTH; 20 g/ha,80%
same,Post-emergence effect against ABUTH,ABUTH; 80 g/ha,90%
same,Post-emergence effect against ABUTH,ABUTH; 320 g/ha,90%
same,Post-emergence effect against LOLRI in %,LOLRI; 320 g/ha,90%
same,Post-emergence effect against SETVI in %,SETVI; 20 g/ha,90%
same,Post-emergence effect against SETVI in %,SETVI; 80 g/ha,90%
same,Post-emergence effect against SETVI in %,SETVI; 320 g/ha,90%
same,Post-emergence effect against MATIN in %,MATIN; 80 g/ha,80%
same,Post-emergence effect against MATIN in %,MATIN; 320 g/ha,90%
same,Post-emergence effect against AMARE,AMARE; 80 g/ha,90%
same,Post-emergence effect against AMARE,AMARE; 320 g/ha,90%
same,Post-emergence effect against KCHSC in %,KCHSC; 20 g/ha,90%
same,Post-emergence effect against KCHSC in %,KCHSC; 80 g/ha,90%
same,Post-emergence effect against KCHSC in %,KCHSC; 320 g/ha,90%
same,Post-emergence effect against ALOMY,ALOMY,90%
CCOC(=O)C(OC)Oc1nn(-c2ncccc2F)c(-c2ccc(F)nc2)c1Cl (stereo not drawn) [Example I-48],pest or weed control at 80 g/ha,ECHCG; 80 g/ha,90%
same,pest or weed control at 320 g/ha,ECHCG; 320 g/ha,90%
same,pest or weed control at 20 g/ha,"VIOTR; Viola tricolor, 504 h, 20 g/ha, read-out: Post-emergence effect against VIOTR in %",80%
same,pest or weed control at 80 g/ha,VIOTR; [1],90%
same,pest or weed control at 320 g/ha,VIOTR; [2],90%
same,pest or weed control at 80 g/ha,DIGSA; 80 g/ha,80%
same,pest or weed control at 320 g/ha,DIGSA; 320 g/ha,90%
same,pest or weed control at 20 g/ha,"POLCO; Fallopia convolvulus, 504 h, 20 g/ha, read-out: Post-emergence effect against POLCO in %",80%
same,pest or weed control at 80 g/ha,POLCO; [3],80%
same,pest or weed control at 320 g/ha,POLCO; [4],80%
same,pest or weed control at 80 g/ha,PHBPU; 80 g/ha,90%
same,pest or weed control at 320 g/ha,PHBPU; 320 g/ha,90%
same,pest or weed control at 80 g/ha,"VERPE; Veronica persica, 504 h, 80 g/ha, read-out: Post-emergence effect against VERPE in %",80%
same,pest or weed control at 320 g/ha,VERPE; [5],90%
same,plant injury at 20 g/ha,"ZEAMX; Zea mays, 504 h, 20 g/ha",0%
same,pest or weed control at 80 g/ha,AVEFA; 80 g/ha,90%
same,pest or weed control at 320 g/ha,AVEFA; 320 g/ha,90%
same,pest or weed control at 80 g/ha,ABUTH; 80 g/ha,80%
same,pest or weed control at 320 g/ha,ABUTH; 320 g/ha,90%
same,pest or weed control at 80 g/ha,LOLRI,90%
same,pest or weed control at 320 g/ha,LOLRI; 320 g/ha,90%
same,pest or weed control at 80 g/ha,"SETVI; Setaria viridis, 504 h, 80 g/ha, read-out: Post-emergence effect against SETVI in %",90%
same,pest or weed control at 320 g/ha,SETVI; [6],90%
same,pest or weed control at 80 g/ha,"MATIN; Tripleurospermum inodorum, 504 h, 80 g/ha, read-out: Post-emergence effect against MATIN in %",80%
same,pest or weed control at 320 g/ha,MATIN; [7],90%
same,pest or weed control at 320 g/ha,AMARE; 320 g/ha,80%
same,pest or weed control at 80 g/ha,KCHSC; 80 g/ha,80%
same,pest or weed control at 320 g/ha,KCHSC; 320 g/ha,90%
same,pest or weed control at 320 g/ha,ALOMY,90%
COC(=O)C(OC)Oc1nn(-c2ncccc2F)c(-c2ccc(F)nc2)c1C1CC1 (stereo not drawn) [Example I-40],pest or weed control at 80 g/ha,ECHCG; 80 g/ha,90%
same,pest or weed control at 320 g/ha,ECHCG; 320 g/ha,90%
same,pest or weed control at 80 g/ha,VIOTR; [1],90%
same,pest or weed control at 320 g/ha,VIOTR; [2],90%
same,pest or weed control at 320 g/ha,DIGSA; 320 g/ha,90%
same,pest or weed control at 80 g/ha,POLCO; [3],90%
same,pest or weed control at 320 g/ha,POLCO; [4],90%
same,pest or weed control at 80 g/ha,PHBPU; 80 g/ha,90%
same,pest or weed control at 320 g/ha,PHBPU; 320 g/ha,90%
same,pest or weed control at 320 g/ha,VERPE; [5],90%
same,Post-emergence effect at 320 g/ha against ZEAMX in %,ZEAMX; 320 g/ha,0%
same,plant injury at 20 g/ha,"ZEAMX; Zea mays, 504 h, 20 g/ha",0%
same,plant injury at 80 g/ha,"ZEAMX; Zea mays, 504 h, 80 g/ha, read-out: Post-emergence effect at 80 g/ha against ZEAMX in %",0%
same,pest or weed control at 80 g/ha,AVEFA; 80 g/ha,80%
same,pest or weed control at 320 g/ha,AVEFA; 320 g/ha,90%
same,pest or weed control at 80 g/ha,ABUTH; 80 g/ha,90%
same,pest or weed control at 320 g/ha,ABUTH; 320 g/ha,90%
same,pest or weed control at 80 g/ha,LOLRI,90%
same,pest or weed control at 320 g/ha,LOLRI; 320 g/ha,90%
same,pest or weed control at 320 g/ha,SETVI; [6],90%
same,pest or weed control at 320 g/ha,MATIN; [7],80%
same,pest or weed control at 320 g/ha,AMARE; 320 g/ha,80%
same,Post-emergence effect against KCHSC in %,KCHSC; 80 g/ha,90%
same,Post-emergence effect against KCHSC in %,KCHSC; 320 g/ha,90%
same,pest or weed control at 320 g/ha,ALOMY,90%

# Source: US20240391862A1, “(1,4,5-TRISUBSTITUTED-1H-PYRAZOL-3-YL)OXY-2-ALKOXY ALKYL ACIDS AND THEIR DERIVATIVES, THEIR SALTS AND THEIR USE AS HERBICIDAL AGENTS” (Bayer AKtiengesellschaft, priority 2021, published 2024)
